These results are taken from patent US8426447B2, “Spiro-tricyclic ring compounds as beta-secretase modulators and methods of use” (Amgen Inc., priority 2008, dated 2013).

For assay [1], the target named is T1, BACE1 (Homo sapiens, UniProt P56817). As to the kind of experiment: In Vitro Enzymatic BACE FRET (Fluorescence Resonance Energy Transfer) Assay. In kind it is biochemical. The settings on record: read-out: BACE1 FRET assay. In short, it runs like this:
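One-hour incubation initiated by 50 nM quenched FRET peptide spanning the BACE cleavage site, in 0.05 M acetate (pH 4.2), 100 uM genapol, 10% DMSO final. Tris addition neutralizes pH to end the reaction before fluorescence measurement.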

Assay [2] has as its target T1, BACE1. As to the kind of experiment: In Vitro BACE Cell-based Assay (HEK cell assay): Aβ40 in conditioned medium of cells stably expressing Amyloid Precursor Protein, sandwich ELISA. The settings on record: read-out: HEK cell assay. In outline: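 Read-out is time-resolved fluorescence of Aβ40 in supernatant, captured by pAb40 and detected with biotinylated 6E10 plus Streptavidin-Europium. Cells stably expressing APP received compounds for 24 h over 10 concentrations starting at 100 μM or 10 μM, final DMSO 0.1%.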

Assay [3] has as its system amyloid beta peptide (A-beta) in cerebrospinal fluid and brain. Description: In Vivo Inhibition of Beta-Secretase: reduction of A-beta levels in CSF and brain. Particulars: after 4 hrs, mouse or rat.
Source text: Several animal models, including mouse, rat, dog, and monkey, may be used to screen for inhibition of beta-secretase activity in vivo following administration of a test compound sample. Animals used in this invention can be wild type, transgenic, or gene knockout animals. […] A separate group of animals receive 2% hydroxypropyl methylcellulose, 1% Tween80 alone, containing no test compound, and serve as a vehicle-control group. At the end of the test period, animals are sacrificed and brain tissues, plasma or cerebrospinal fluid are collected. […] Homogenates are centrifuged at 355,000 g, 4° C. for 30 minutes. CSF or brain supernatants are then analyzed for the presence of A-beta peptide by specific sandwich ELISA assays based on ECL (Electrochemiluminescence) technology. For example, rat Abeta40 is measured using biotinylated-4G8 (Signet) as a capture antibody and Fab40 (an in-house antibody specific to the C-terminal of Abeta40) as a detection antibody.

Bounds are passed on as bounds.

T1 sequence (P56817 46-501, species assumed): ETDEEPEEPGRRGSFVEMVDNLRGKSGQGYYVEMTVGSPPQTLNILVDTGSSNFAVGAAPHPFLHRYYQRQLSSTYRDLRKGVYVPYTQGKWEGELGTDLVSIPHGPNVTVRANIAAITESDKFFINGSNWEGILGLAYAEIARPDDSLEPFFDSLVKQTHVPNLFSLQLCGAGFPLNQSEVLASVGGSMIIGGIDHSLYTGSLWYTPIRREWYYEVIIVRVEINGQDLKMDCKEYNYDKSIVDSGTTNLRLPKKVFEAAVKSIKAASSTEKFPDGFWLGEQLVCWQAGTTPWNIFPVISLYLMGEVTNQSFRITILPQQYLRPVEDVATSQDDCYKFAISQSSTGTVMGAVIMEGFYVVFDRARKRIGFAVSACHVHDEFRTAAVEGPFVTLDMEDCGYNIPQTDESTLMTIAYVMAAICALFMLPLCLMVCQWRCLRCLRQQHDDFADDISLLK

In the case of `NC1=N[C@@]2(CO1)c1cc(-c3cccnc3F)ccc1Oc1ccc(N3CCOCC3)cc12` [Example 289, (S)-2′-(2-fluoropyridin-3-yl)-7′-morpholino-5H-spiro[oxazole-4,9′-xanthen]-2-amine 2,2,2-trifluoroacetate], the IC50 is below 0.1 µM in assay [1] (Table IV, class symbols) and below 0.1 µM in assay [2] (Table IV, class symbols). For the same compound, the “percent reduction in CSF A-beta levels” value in assay [3] (10 mpk) is 49%; in assay [3] (30 mpk) it was 69%. The “percent reduction in brain A-beta levels” value in assay [3] (10 mpk) is 23%; in assay [3] (30 mpk) it was 52%.

Regarding `CC1(C)CN(c2ccc3c(c2)[C@]2(COC(N)=N2)c2cc(-c4cccnc4)ccc2O3)CCO1` [Example 663, (4S)-2′-(2,2-dimethyl-4-morpholinyl)-7′-(3-pyridinyl)spiro[1,3-oxazole-4,9′-xanthen]-2-amine], the IC50 is below 0.1 µM in assay [1] (Table IV, class symbols) and below 0.1 µM in assay [2] (Table IV, class symbols). Besides, the “percent reduction in CSF A-beta levels” value in assay [3] (30 mpk) turned out to be 57%. Also, in assay [3] (30 mpk), the “percent reduction in brain A-beta levels” value is 44%.

For the compound `CC(C)(C)C#Cc1cnc2c(c1)[C@]1(COC(N)=N1)c1cc(-c3cccnc3)ccc1O2` [Example 185b, (5S)-3-(3,3-dimethyl-1-butyn-1-yl)-7-(3-pyridinyl)spiro[chromeno[2,3-b]pyridine-5,4′-[1,3]oxazol]-2′-amine], the IC50 in assay [1] (Table III, IC50's in uM ranges) was below 0.1 µM. For the same compound, the IC50 in assay [2] (Table III, IC50's in uM ranges) was below 0.1 µM. Further, in assay [3] (30 mpk), the “percent reduction in CSF A-beta levels” value turned out to be 72% and the “percent reduction in brain A-beta levels” value was 58%.

Take `CC(C)(C)COc1ccc2c(c1)[C@@]1(COC(N)=N1)c1cc(-c3ccncc3)cnc1O2` [Example 808, (5S)-7-(2,2-dimethylpropoxy)-3-(4-pyridinyl)spiro[chromeno[2,3-b]pyridine-5,4′-[1,3]oxazol]-2′-amine]: the IC50 in assay [1] (Table IV, class symbols) is below 0.1 µM; in assay [2] (Table IV, class symbols), below 0.1 µM. The “percent reduction in CSF A-beta levels” value in assay [3] (30 mpk) amounted to 55%. In addition, the “percent reduction in brain A-beta levels” value in assay [3] (30 mpk) was determined as 43%.

With `CC(C)(C)COc1ccc2c(c1)[C@]1(COC(N)=N1)c1cc(-c3cccnc3)cnc1O2` [Example 92, (5R)-7-(2,2-dimethylpropoxy)-3-(3-pyridinyl)spiro[chromeno[2,3-b]pyridine-5,4′-[1,3]oxazol]-2′-amine], the IC50 in assay [1] (Table II) was below 0.1 µM. Further, the IC50 in assay [2] (Table II, Aβ40, 24 h incubation) is below 0.1 µM. Further, in assay [3] (30 mpk), the “percent reduction in CSF A-beta levels” value is given as 62% and the “percent reduction in brain A-beta levels” value was found to be 49%.

Turning to `CC(C)(F)COc1cc(F)c2c(c1)[C@]1(COC(N)=N1)c1cc(-c3cncnc3)ccc1O2` [Example 293, (S)-4′-fluoro-2′-(2-fluoro-2-methylpropoxy)-7′-(pyrimidin-5-yl)-5H-spiro[oxazole-4,9′-xanthen]-2-amine], the IC50 in assay [1] was below 0.1 µM. Besides, in assay [2] (HEK cells), the IC50 was below 0.1 µM. In assay [3] (10 mpk), the “percent reduction in CSF A-beta levels” value turned out to be 73% and the “percent reduction in brain A-beta levels” value came out at 63%.

As for `CC1(C)CN(c2ccc3c(c2)[C@]2(COC(N)=N2)c2cc(-c4cccnc4F)ccc2O3)CCO1` [Example 290, (S)-2′-(2,2-dimethylmorpholino)-7′-(2-fluoropyridin-3-yl)-5H-spiro[oxazole-4,9′-xanthen]-2-amine], the IC50 in assay [1] and in assay [2] (HEK cells) was below 0.1 µM in each case. For the same compound, in assay [3] (10 mpk), the “percent reduction in CSF A-beta levels” value is on record as 63%. The “percent reduction in brain A-beta levels” value in assay [3] (10 mpk) was determined as 33%.

With `C[C@@H]1CN(c2ccc3c(c2)[C@]2(COC(N)=N2)c2cc(-c4cccnc4)ccc2O3)C[C@H](C)O1` [Example 662, (4S)-2′-((2R,6S)-2,6-dimethyl-4-morpholinyl)-7′-(3-pyridinyl)spiro[1,3-oxazole-4,9′-xanthen]-2-amine], the IC50 in assay [1] (Table IV, class symbols) was below 0.1 µM. Besides, in assay [2] (Table IV, class symbols), the IC50 was below 0.1 µM. In assay [3] (30 mpk), the “percent reduction in CSF A-beta levels” value was 53% and the “percent reduction in brain A-beta levels” value is on record as 34%.

`NC1=NC2(CO1)c1cc(-c3cncnc3)ccc1Oc1c(F)cc(C3=CCOCC3)cc12` (stereo in doubt) [Example 295, (R)-2′-(3,6-dihydro-2H-pyran-4-yl)-4′-fluoro-7′-(pyrimidin-5-yl)-5H-spiro[oxazole-4,9′-xanthen]-2-amine]: the IC50 in assay [1] (Table IV, class symbols) was below 0.1 µM. In assay [2] (Table IV, class symbols), the IC50 is below 0.1 µM. Also, in assay [3] (30 mpk), the “percent reduction in CSF A-beta levels” value is reported as 78% and the “percent reduction in brain A-beta levels” value came to 66%.
